In US20170202792A1, “METHOD FOR TREATING TAU-ASSOCIATED DISEASES” (NATIONAL TAIWAN NORMAL UNIVERSITY, priority 2016, published 2017):

What was measured:
[1] = tested on: phosphorylated tau protein; experiment: Western blot of mouse hippocampal tissue, phosphorylated tau; format: in vivo; details: hyperglycemic 3×Tg-AD mice; 0.25 mg/kg i.p. daily vs DMSO
Description: Hyperglycemia was induced by streptozotocin (STZ) to accelerated Alzheimer's disease progression of 6-month-old male transgenic 3×Tg−AD mice. Half of the 3×Tg−AD mice (n=30) received STZ (100 mg/kg) intraperitoneal injection at days 1, 2, 8, and 9 respectively as the high blood glucose group (HBG); another half of the 3×Tg-AD mice (n=30) received sodium citrate (0.1 M) at the same time points as the normal blood glucose group (NBG). […] Both mouse body weight (BW) and blood glucose (BG) were monitored every week.
Mice were sacrificed after MWM and hippocampi were isolated for analyzing several protein expression levels by means of western blot. The protein of the hippocampi was quantified by BCA assay (Pierce), wherein 25 μg of protein was separated by SDS-PAGE and then transferred to PVDF film. Next, protein was blocked for reducing non-specific signals, and reacted with primary antibodies (GSK-3β, pS9-GSK-3β (non-activated), pT216-GSK-3β(activated), pS202Tau, pS396Tau, pT231Tau, HT7 (total Tau)), and secondary antibodies (anti-rabbit, anti-mouse IgG HRP-linked antibody; 1:10,000; Amersham Pharmacia Biotech). β-actin was used as the loading control, ECL kit was used to detect the antigen-antibody complex, and LAS-4000 (Fujifilm) was used for imaging and quantification.

[2] = tested on: cholinergic, serotonergic and noradrenergic neurons; experiment: Immunohistochemical staining in brain region (ChAT, TH, 5HT neurons); format: in vivo, mouse; details: for 5HT (serotonergic neurons in the Raphe nucleus) quantification / TH (noradrenergic neurons in the LC region) quantification: 0.25 mg/kg i.p. daily 28 days
Description: (§1) Hyperglycemia was induced by streptozotocin (STZ) to accelerated Alzheimer's disease progression of 6-month-old male transgenic 3×Tg−AD mice. Half of the 3×Tg−AD mice (n=30) received STZ (100 mg/kg) intraperitoneal injection at days 1, 2, 8, and 9 respectively as the high blood glucose group (HBG); another half of the 3×Tg-AD mice (n=30) received sodium citrate (0.1 M) at the same time points as the normal blood glucose group (NBG). Then, HBG and NBG were divided into two groups respectively to give four groups such as NBG-compound (I), HBG-compound (I), NBG-DMSO, and HBG-DMSO with n=15 in each group; wherein 0.25 mg/kg of compound (I) (in 30 μL) were intraperitoneal injected into those mice of NBG-compound (I) and HBG-compound (I) groups daily since day 14 for 28 days, and 30 μL of DMSO solvent were intraperitoneal injected into those mice of NBG-DMSO and HBG-DMSO groups daily since day 14 for 28 days. Both mouse body weight (BW) and blood glucose (BG) were monitored every week.
Neurons including the cholinergic neurons in the medial septum (MS), vertical diagonal band of Broca (VDB), and horizontal diagonal band of Broca (HDB) regions; the serotonergic neurons in the Raphe nucleus; and the noradrenergic neurons in the locus coeruleus (LC) region, which are related to cognition in the other brain regions were examined.
(§2) After the brain tissue of the mice were fixed and dehydrated, the tissue was cryosectioned (30 μm). The cryosections were then washed with phosphate buffered saline (PBS) for three times. After the optimal cutting temperature compound (OCT) was removed, 3% H2O2was used to remove the endogenous peroxidase, and the cryosections were blocked by the blocking solution for 1 hour to reduce non-specific antigen reactions. The primary antibodies (ChAT, TH, 5HT) were added and reacted for 12 hours, the secondary antibody (1:200 dilution in blocking solution, Vecter) was added and reacted for 1 hour, and then, the avidin-biotin complex was added and reacted for 1 hour. Finally, DAB-kit was used for coloring. All the stained sections were attached to the slides, dried, dehydrated, and mounted for imaging and quantification (Image Pro Plus).

[3] = tested on: 3×Tg-AD mice; experiment: Morris water maze (MWM) test; format: in vivo, mouse
Description: as §1
Morris water maze (MWM) was conducted to evaluate the learning and memory ability of the mice at days 34-42. At first, during the 4 training days, each of the mice received four trails a day, wherein each of the mice was released into the water from a starting point that randomly varied between trials, and the time required for each of the mice to find the hidden platform to escape from the water maze (escape latency) was calculated, and the curve of 4 training days represent the learning profile of mice. 24 hours after the final training trial, the mice underwent three testing trials to determine the time required to find the hidden platform as a measure of spatial learning acquisition. The probe trials were conducted 48 hours after the end of the testing trials to evaluate the long-term spatial memory, wherein each mouse was allowed to swim freely in a pool without platform for 60 seconds, and the duration of the mouse spent in the target quadrant (where the platform was originally disposed) was measured to represent the degree of memory consolidation after learning.

[4] = tested on: Aβ40, Aβ42; experiment: Immunohistochemical staining of Aβ in brain tissue; format: in vivo, mouse; details: 0.25 mg/kg i.p. daily 28 days
Description: as §1
as §2, with “mice was” for “mice were”, “3% H2O2 was” for “3% H2O2was”, “reduce the” for “reduce”, “antibodies (Aβ40, Aβ42)” for “antibodies (ChAT, TH, 5HT)”, “Plus). The quantification results were shown in Table 1, wherein ↑, ↓:p<0.05; ↑↑, ↓↓:p<0.01.” for “Plus).”

[5] = tested on: GSK-3β (total and p-Ser9); experiment: Western blot of total and phosphorylated GSK-3β in tauRD-DsRed SH-SY5Y cells; format: cell-based, human
Description: Western blotting analysis was applied for examining the expressions of HSPB1 and GRP78, the method was as follows: total proteins were extracted using RIPA buffer, which comprised 50 mM Tris-HCl, 150 mM NaCl, 1 mM EDTA, 1 mM EGTA, 0.1% SDS, 0.5% sodium deoxycholate, 1% Triton X-100, and a protease inhibitor cocktail (Calbiochem). […] of total proteins were separated on 10% SDS-PAGE gels and blotted onto nitrocellulose membrane which were stained (4° C., overnight) with antibodies against DsRed (1:500; Santa Cruz), HSPB1 (1:500; Santa Cruz), and GRP78 (1:200; Santa Cruz). Next, immunoreactive bands were detected using horseradish peroxidase-conjugated goat anti-mouse, goat anti-rabbit, or donkey anti-goat IgG antibodies (1:5000; GeneTex) and chemiluminescent substrate (Millipore).
The methods of cell culture and western blot analysis are similar to that described above, except that the antibodies against GSK-3β (total and p-Ser9) (1:1000; Cell Signaling), total tau (1:500; Dako), p-tau (Ser202) (1:500; AnaSpec), p-tau (Thr231 and Ser396) (1:1000; Invitrogen), [3-actin (1:5000; Millipore), or GAPDH (1:2000; MDBio) were used herein for evaluation of the expression levels thereof in the cells.

[6] = HBG (high blood glucose, STZ) 3×Tg-AD mice
[7] = NBG (normal blood glucose) 3×Tg-AD mice

## CCCCC/C=C\C/C=C\C/C=C\C/C=C\CCCC(=O)Nc1ccc(O)cc1 [compound (I), (5Z, 8Z, 11Z,14Z)-N-(4-Hydroxyphenyl)icosa-5 ,8 , 11,14-tetraen amide]
[1]
  expression level of phosphorylated tau protein in hippocampus: lower than that of the mice administrated with DMSO
[2]; HBG 3×Tg-AD mice
  5HT (serotonergic neurons in the Raphe nucleus) quantification: 33.00 ± 1.78↑↑↑
  TH (noradrenergic neurons in the LC region) quantification: 56.89 ± 4.45↓
[2]; NBG 3×Tg-AD mice
  5HT (serotonergic neurons in the Raphe nucleus) quantification: 31.80 ± 2.04
  TH (noradrenergic neurons in the LC region) quantification: 75.75 ± 3.12
[2]; data not shown, among groups
  cholinergic neurons (ChAT; MS, VDB, HDB regions): no difference was identified
[3]; 0.25 mg/kg i.p. daily
  duration in target quadrant of probe trial in MWM (long-term memory): ameliorate the long-term memory damages
[3]; 4 training days, 0.25 mg/kg i.p. daily, among 4 groups
  swimming velocity in MWM: no difference
[3]; high blood glucose groups, 0.25 mg/kg i.p. daily vs DMSO
  escape latency of 4 training days in MWM (learning ability): better learning ability
[4]; [6]
  Aβ40 staining quantification: 164.78 ± 9.51↓↓
  Aβ42 staining quantification: 26.91 ± 1.28↓
[4]; [7]
  Aβ40 staining quantification: 181.88 ± 4.17
  Aβ42 staining quantification: 29.13 ± 0.64
[5]
  GSK-3β expression: down-regulated
  expression level of phosphorylated GSK-3β: increased
